Measurements published in patent publication US20250144172A1, “ANTI-FIBROTIC SIALIDASE INHIBITOR COMPOUNDS AND METHODS OF USE” (The Texas A&M University System, priority 2016, published 2025).
Read-outs that look alike come from different tables or passages of the source.

Key:
human PBMC = experiment: TGF-β1 accumulation by human PBMC (antibody staining and ELISA); assay type: cell-based; conditions: inhibitor 3 μM; sialidases 200 ng/ml; 5 days; ELISA
Procedure: To determine if sialidases might cause cells to accumulate intracellular and extracellular TGF-β1, human PBMC were cultured with sialidases in 96 well plates at 5×10^5 cells/ml and 200 μl/well in FibroLife serum-free medium for five days, then air dried. The levels of TGF-β1 in or on the cells was detected by staining with an antibody against TGF-β1. Photomicrographs were analyzed by counting stained cells (FIG. 7B) and quantifying staining intensity using ImageJ (FIG. 7C).
PBMC were cultured in 96 well plates at 5×10^5 cells/ml and 200 μl/well in FibroLife serum-free medium. When the cells were plated, recombinant human sialidases were added to final concentrations of 200 ng/ml, and DANA or oseltamivir were added to 3 μM. After 5 days, culture supernatants were analyzed using a TGF-β1 ELISA kit (R&D Systems).

[1] = test system: mice with bleomycin-induced fibrosis; experiment: mouse bleomycin model of pulmonary fibrosis; assay type: in vivo; conditions: day 21
Procedure: The successful aspiration of bleomycin into the lungs was confirmed by listening for a crackling noise heard after the aspiration. Mice were weighed daily, and euthanized using CO2 following NIH guidelines at day 21 after bleomycin aspiration. The experiment was performed in accordance with the recommendations in the Guide for the Care and Use of Laboratory Animals of the National Institutes of Health. The Texas A&M University Animal Use and Care Committee approved the protocol.
The BALs were clarified by centrifugation at 500×g for 10 minutes, and the supernatants were transferred to Eppendorf tubes. The supernatants were flash frozen with liquid nitrogen, and stored at −20° C. until further use.
After collection of BAL fluid, mouse lungs were inflated with prewarmed Optimal Cutting Temperature (OCT) embedding medium (VWR, Radnor, PA) and then embedded in OCT, frozen on dry ice, and then stored at −80° C. 6-micron cryosections of mouse lungs were mounted on Superfrost Plus® microscope slides (VWR). The sections on the slides were allowed to air-dry for 24-48 hours. The slides were then fixed in acetone at room temperature for 20 minutes and air-dried for 10 minutes.
Then, starting 24 hours after bleomycin had been administered, the mice were given daily intraperitoneal injections of 10 mg/kg DANA (Calbiochem) in PBS or 10 mg/kg oseltamivir (Sigma) in PBS. Both inhibitors are quite polar and thus probably remain in the extracellular space. Assuming 2 ml of extracellular space in a 20 gram mouse, these doses would then be ˜3 μM. At day 21, mice were sacrificed and BAL and cryosections of lungs were obtained as described for Example 3. The experiment was performed in accordance with the recommendations in the Guide for the Care and Use of Laboratory Animals of the National Institutes of Health. The Texas A&M University Animal Use and Care Committee approved the protocol.
Treatment of mice with oropharyngeal bleomycin results in an initial inflammation, and then a fibrosis that has begun by day 10 after bleomycin treatment. To determine if sialidase inhibitors decrease fibrosis when treatment starts after the initial inflammation stage and when fibrosis is present, mice were treated with oropharyngeal bleomycin to induce symptoms of pulmonary fibrosis as described above. Then, starting 10 days after bleomycin had been administered, the mice were given daily intraperitoneal injections of 10 mg/kg DANA (Calbiochem) in PBS or 10 mg/kg oseltamivir (Sigma) in PBS. At day 21, mice were sacrificed and BAL and cryosections of lungs were obtained as described above. The experiment was performed in accordance with the recommendations in the Guide for the Care and Use of Laboratory Animals of the National Institutes of Health. The Texas A&M University Animal Use and Care Committee approved the protocol.
To determine if sialidase inhibitors could also reduce TGF-β1 levels in mice, mice were treated with bleomycin or saline, then injected daily with saline, DANA or oseltamivir starting at day 10 after bleomycin treatment, as described in Example 9. The mice were euthanized at day 21 and sections of lung tissue were stained for TGF-β1. Results are presented in FIG. 11A and are representative of results for three mice per group.

human sialidases = conditions: all four human sialidases; carboxylate form; cited from earlier work
murine sialidases = conditions: mice, cited from earlier work
[2] = biological target: LPS-induced mouse macrophage sialidase activity; conditions: cited from earlier work
[3] = 10 mg/kg daily i.p. starting at day 10

## CCC(CC)[C@H](NC(C)=O)[C@@H]1[C@H](O)[C@@H](C(=O)O)C[C@H]1N=C(N)N [Compound 58, (1S,2S,3S,4R)-3-[(1S)-1-acetamido-2-ethyl-butyl]-4-(diaminomethylideneamino)-2-hydroxy-cyclopentane-1-carboxylic acid]
Human PBMC
  effects of NEU2 and NEU3 on extracellular TGF-β1: blocked
[1]; 10 mg/kg daily i.p. starting 24 hours after bleomycin
  collagen deposition in the lungs (Sirius red): reduced
[1]; [3]
  collagen deposition in the lungs (Sirius red): reduced
  total protein in BAL: attenuated
[1]; daily injection starting at day 10
  TGF-β1 levels in lung tissue (staining): reduced TGF-β1 levels
Human sialidases
  inhibitor of human sialidases: poor inhibitor
Murine sialidases; listed as Oseltamivir
  inhibitor of murine sialidases: potent sialidase inhibitor in mice
Murine sialidases; listed as oseltamivir
  inhibitor of murine sialidases: potent inhibitor
[2]
  IC50: 1000 nM
